Laboratory results reported in the kinase profiling compilation of Christmann-Franck et al. (2016).

Experiments:
Assay in all cases: Caliper, Mobility shift assay off-chip
DCLK2 (human) = DCLK2 (human) (UniProt Q8N568)
STK10 (human) = STK10 (human) (UniProt O94804)
MKNK1 (human) = MKNK1 (human) (UniProt Q9BUB5)
RPS6KA3 KD1 KD2 (human) = RPS6KA3 KD1 KD2 (human) (UniProt P51812)
AURKA (human) = AURKA (human) (UniProt O14965)
PRKD3 (human) = PRKD3 (human) (UniProt O94806)
PBK (human) = PBK (human) (UniProt Q96KB5)
STK24 (human) = STK24 (human) (UniProt Q9Y6E0)
BMX (human) = BMX (human) (UniProt P51813)
EPHB3 (human) = EPHB3 (human) (UniProt P54753)
TNK2 (human) = TNK2 (human) (UniProt Q07912)
MET (human) = MET (human) (UniProt P08581)
MKNK2 (human) = MKNK2 (human) (UniProt Q9HBH9)
MST4 (human) = MST4 (human) (UniProt Q9P289)
MST4 (human), sequence (Q9P289 whole entry, looked up): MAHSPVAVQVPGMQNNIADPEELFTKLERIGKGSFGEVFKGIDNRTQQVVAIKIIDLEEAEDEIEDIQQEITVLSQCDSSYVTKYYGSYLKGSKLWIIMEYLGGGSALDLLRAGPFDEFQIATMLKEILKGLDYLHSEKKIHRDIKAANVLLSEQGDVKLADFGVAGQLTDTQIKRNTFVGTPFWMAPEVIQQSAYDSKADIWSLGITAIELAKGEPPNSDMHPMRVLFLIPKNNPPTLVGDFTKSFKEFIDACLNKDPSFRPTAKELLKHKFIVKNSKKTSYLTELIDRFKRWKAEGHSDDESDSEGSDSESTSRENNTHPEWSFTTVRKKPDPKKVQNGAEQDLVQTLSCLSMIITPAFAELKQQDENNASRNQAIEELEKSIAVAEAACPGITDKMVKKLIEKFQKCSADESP

TEK (human) = TEK (human) (UniProt Q02763)
TBK1 (human) = TBK1 (human) (UniProt Q9UHD2)
SLK (human) = SLK (human) (UniProt Q9H2G2)
HIPK3 (human) = HIPK3 (human) (UniProt Q9H422)
FGFR2 (human) = FGFR2 (human) (UniProt P21802)
PIK3CA PIK3R1 (human) = PIK3CA PIK3R1 (human) (UniProt P27986+P42336)
JAK2 JH1 JH2 (human) = JAK2 JH1 JH2 (human) (UniProt O60674)
PRKCH (human) = PRKCH (human) (UniProt P24723)
CSNK1G2 (human) = CSNK1G2 (human) (UniProt P78368)
CSNK1G2 (human), sequence (P78368 whole entry, looked up): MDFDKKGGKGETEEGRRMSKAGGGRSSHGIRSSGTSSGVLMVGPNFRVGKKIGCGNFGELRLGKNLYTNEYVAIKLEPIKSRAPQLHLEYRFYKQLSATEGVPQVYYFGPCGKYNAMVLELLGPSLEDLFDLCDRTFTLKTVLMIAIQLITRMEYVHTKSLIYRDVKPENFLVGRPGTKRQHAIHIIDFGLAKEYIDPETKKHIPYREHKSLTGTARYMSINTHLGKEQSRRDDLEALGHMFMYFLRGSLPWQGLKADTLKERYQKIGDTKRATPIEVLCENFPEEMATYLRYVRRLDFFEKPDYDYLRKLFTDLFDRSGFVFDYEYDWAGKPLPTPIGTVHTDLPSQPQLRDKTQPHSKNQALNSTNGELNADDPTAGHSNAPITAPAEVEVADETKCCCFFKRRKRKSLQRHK

MAPK10 (human) = MAPK10 (human) (UniProt P53779)
MAPK10 (human), sequence (P53779 whole entry, looked up): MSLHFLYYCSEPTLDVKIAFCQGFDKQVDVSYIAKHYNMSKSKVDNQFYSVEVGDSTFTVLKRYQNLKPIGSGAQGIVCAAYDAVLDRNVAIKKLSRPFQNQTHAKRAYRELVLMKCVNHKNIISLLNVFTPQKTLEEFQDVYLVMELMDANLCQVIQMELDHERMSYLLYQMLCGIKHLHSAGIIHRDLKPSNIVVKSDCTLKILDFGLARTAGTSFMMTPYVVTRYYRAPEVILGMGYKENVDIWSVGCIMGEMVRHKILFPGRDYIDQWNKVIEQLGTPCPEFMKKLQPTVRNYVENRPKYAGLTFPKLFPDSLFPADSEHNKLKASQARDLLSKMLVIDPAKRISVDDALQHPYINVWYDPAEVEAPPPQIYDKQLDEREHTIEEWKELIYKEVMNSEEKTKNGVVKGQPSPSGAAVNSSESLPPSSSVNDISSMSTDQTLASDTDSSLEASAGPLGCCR

EPHA6 (human) = EPHA6 (human) (UniProt Q9UF33)
ALK NPM1 (human) = ALK NPM1 (human) (UniProt P06748+Q9UM73)
CDC42BPA (human) = CDC42BPA (human) (UniProt Q5VT25)
MAP4K4 (human) = MAP4K4 (human) (UniProt O95819)
PIM1 (human) = PIM1 (human) (UniProt P11309)
ROCK1 (human) = ROCK1 (human) (UniProt Q13464)
ROCK1 (human), sequence (Q13464 whole entry, looked up): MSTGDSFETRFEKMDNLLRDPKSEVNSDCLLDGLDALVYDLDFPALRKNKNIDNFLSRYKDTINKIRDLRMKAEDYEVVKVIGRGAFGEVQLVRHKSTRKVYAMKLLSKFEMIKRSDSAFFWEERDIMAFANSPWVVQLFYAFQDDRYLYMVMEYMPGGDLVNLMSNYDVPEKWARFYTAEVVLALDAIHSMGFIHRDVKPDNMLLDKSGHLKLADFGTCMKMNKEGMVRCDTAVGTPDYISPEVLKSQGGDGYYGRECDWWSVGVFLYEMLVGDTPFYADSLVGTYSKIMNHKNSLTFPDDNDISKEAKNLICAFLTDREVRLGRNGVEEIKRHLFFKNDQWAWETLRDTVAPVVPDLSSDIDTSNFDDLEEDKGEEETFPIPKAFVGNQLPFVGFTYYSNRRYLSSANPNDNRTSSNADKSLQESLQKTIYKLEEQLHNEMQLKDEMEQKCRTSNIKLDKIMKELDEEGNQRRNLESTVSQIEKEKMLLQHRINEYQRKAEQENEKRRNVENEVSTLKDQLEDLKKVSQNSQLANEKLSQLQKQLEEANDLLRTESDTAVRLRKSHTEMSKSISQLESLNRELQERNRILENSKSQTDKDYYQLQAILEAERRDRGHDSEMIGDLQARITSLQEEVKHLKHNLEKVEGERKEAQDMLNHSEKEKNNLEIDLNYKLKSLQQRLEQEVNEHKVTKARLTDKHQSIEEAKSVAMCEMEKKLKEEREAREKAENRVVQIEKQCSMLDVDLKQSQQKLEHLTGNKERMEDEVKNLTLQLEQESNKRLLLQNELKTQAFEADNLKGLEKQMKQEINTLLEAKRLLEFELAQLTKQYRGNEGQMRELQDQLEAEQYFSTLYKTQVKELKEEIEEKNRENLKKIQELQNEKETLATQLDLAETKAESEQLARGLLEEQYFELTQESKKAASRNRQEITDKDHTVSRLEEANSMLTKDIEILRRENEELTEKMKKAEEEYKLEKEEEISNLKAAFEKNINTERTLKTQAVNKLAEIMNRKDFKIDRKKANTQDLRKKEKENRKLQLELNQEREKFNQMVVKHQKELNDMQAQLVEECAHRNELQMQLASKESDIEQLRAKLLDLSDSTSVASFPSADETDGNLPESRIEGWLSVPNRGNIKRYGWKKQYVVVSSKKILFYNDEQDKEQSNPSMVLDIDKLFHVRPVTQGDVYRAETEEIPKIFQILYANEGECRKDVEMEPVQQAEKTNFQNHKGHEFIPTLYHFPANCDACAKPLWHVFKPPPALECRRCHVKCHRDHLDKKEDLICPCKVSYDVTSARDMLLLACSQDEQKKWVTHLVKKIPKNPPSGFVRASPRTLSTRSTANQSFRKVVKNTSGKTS

CAMK4 (human) = CAMK4 (human) (UniProt Q16566)
CAMK4 (human), sequence (Q16566 whole entry, looked up): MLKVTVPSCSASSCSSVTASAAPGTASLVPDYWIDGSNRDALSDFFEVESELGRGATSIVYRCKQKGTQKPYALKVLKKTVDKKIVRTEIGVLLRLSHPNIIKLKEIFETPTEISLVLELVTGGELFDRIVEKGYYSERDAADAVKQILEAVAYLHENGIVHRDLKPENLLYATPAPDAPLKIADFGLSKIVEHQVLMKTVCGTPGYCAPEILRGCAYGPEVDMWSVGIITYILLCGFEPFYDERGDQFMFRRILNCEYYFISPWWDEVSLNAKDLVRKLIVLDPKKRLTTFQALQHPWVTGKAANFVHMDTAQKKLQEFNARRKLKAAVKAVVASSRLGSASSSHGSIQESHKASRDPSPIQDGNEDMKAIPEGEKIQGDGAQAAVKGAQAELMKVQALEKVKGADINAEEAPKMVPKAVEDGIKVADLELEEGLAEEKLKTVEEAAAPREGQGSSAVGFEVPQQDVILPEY

KIT (human) = KIT (human) (UniProt P10721)
LATS2 (human) = LATS2 (human) (UniProt Q9NRM7)
IRAK1 (human) = IRAK1 (human) (UniProt P51617)

AURKA (human), sequence (O14965 whole entry, looked up): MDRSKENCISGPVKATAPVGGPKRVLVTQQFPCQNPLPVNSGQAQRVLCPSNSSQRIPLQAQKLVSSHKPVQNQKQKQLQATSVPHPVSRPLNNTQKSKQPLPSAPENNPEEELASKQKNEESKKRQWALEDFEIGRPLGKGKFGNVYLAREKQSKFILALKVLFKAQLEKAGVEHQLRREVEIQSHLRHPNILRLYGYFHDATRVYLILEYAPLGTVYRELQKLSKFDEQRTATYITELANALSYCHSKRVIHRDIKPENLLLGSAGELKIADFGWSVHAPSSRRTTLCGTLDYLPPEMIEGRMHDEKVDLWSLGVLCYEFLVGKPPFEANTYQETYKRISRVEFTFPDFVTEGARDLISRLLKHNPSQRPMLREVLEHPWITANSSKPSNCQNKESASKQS
STK10 (human), sequence (O94804 whole entry, looked up): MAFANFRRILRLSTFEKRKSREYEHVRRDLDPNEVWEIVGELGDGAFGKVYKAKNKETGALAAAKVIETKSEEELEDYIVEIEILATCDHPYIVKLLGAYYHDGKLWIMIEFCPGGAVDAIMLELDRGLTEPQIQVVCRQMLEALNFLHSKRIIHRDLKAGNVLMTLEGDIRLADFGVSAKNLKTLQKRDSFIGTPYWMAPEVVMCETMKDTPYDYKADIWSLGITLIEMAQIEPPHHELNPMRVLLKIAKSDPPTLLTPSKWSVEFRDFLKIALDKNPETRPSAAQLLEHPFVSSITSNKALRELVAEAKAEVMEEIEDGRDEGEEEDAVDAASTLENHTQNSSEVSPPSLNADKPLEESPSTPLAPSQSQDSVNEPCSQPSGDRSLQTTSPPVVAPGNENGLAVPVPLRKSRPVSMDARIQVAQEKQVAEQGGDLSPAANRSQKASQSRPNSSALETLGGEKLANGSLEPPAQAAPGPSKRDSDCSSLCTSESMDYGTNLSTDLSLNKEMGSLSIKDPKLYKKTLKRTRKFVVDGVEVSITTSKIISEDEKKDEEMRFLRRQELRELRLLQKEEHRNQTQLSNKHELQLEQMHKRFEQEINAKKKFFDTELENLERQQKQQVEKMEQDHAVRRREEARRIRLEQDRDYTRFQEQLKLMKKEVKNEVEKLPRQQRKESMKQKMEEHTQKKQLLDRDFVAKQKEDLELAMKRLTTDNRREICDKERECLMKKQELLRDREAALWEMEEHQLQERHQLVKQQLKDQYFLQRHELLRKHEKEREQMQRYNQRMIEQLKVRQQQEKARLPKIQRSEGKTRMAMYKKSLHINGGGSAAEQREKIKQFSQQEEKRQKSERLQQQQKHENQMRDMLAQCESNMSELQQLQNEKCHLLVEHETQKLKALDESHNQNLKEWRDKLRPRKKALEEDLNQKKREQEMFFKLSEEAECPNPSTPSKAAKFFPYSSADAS
MKNK1 (human), sequence (Q9BUB5 whole entry, looked up): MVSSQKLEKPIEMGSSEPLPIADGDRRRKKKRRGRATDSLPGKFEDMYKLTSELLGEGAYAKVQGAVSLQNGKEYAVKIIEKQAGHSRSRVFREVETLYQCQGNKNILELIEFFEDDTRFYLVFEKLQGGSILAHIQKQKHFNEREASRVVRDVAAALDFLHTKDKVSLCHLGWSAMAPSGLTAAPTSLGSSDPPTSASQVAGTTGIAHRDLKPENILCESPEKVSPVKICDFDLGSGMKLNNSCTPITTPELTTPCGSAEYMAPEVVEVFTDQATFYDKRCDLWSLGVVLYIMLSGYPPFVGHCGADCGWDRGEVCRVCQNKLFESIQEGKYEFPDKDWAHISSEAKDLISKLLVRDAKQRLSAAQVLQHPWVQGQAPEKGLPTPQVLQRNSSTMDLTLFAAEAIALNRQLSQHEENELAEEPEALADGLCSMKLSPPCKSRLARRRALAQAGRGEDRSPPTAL

Compound `COc1cc2c(Oc3ccc4[nH]c(C)cc4c3F)ncnc2cc1OCCCN1CCCC1` has an inhibition (DCLK2 (human); compound 0.02 µM) of -1.8%, an inhibition (DCLK2 (human); compound 0.2 µM) of -0.5% and an inhibition (STK10 (human); compound 0.02 µM) of 45.1%. It also gave an inhibition (STK10 (human); compound 0.2 µM) of 91.7%, an inhibition (MKNK1 (human); compound 0.02 µM) of -2.9% and an inhibition (MKNK1 (human); compound 0.2 µM) of 2.6%. It also gave an inhibition (RPS6KA3 KD1 KD2 (human); compound 0.02 µM) of 0.1%, an inhibition (RPS6KA3 KD1 KD2 (human); compound 0.2 µM) of -1.8% and an inhibition (AURKA (human); compound 0.02 µM) of 3.3%. The inhibition (AURKA (human); compound 0.2 µM) was 4.9%, the inhibition (PRKD3 (human); compound 0.02 µM) was -1% and the inhibition (PRKD3 (human); compound 0.2 µM) was -2.5%. It also gave an inhibition (PBK (human); compound 0.02 µM) of 0.1%, an inhibition (PBK (human); compound 0.2 µM) of -6.1% and an inhibition (STK24 (human); compound 0.02 µM) of 2%. For the same compound, the inhibition (STK24 (human); compound 0.2 µM) was 12.8%, the inhibition (BMX (human); compound 0.02 µM) was 8.4% and the inhibition (BMX (human); compound 0.2 µM) was 7.1%. For the same compound, the inhibition (EPHB3 (human); compound 0.02 µM) was -2.6%, the inhibition (EPHB3 (human); compound 0.2 µM) was -1.3% and the inhibition (TNK2 (human); compound 0.02 µM) was -6.7%. The inhibition (TNK2 (human); compound 0.2 µM) was -5.4%, the inhibition (MET (human); compound 0.02 µM) was 1% and the inhibition (MET (human); compound 0.2 µM) was 6%. The inhibition (MKNK2 (human); compound 0.02 µM) was -3.7%, the inhibition (MKNK2 (human); compound 0.2 µM) was 1.2% and the inhibition (MST4 (human); compound 0.02 µM) was -7.3%. The inhibition (MST4 (human); compound 0.2 µM) was -3%, the inhibition (TEK (human); compound 0.02 µM) was 5.8% and the inhibition (TEK (human); compound 0.2 µM) was 48.5%. For the same compound, the inhibition (TBK1 (human); compound 0.02 µM) was -1.8%, the inhibition (TBK1 (human); compound 0.2 µM) was -1.6% and the inhibition (SLK (human); compound 0.02 µM) was 37.5%. For the same compound, the inhibition (SLK (human); compound 0.2 µM) was 85%, the inhibition (HIPK3 (human); compound 0.02 µM) was -6.3% and the inhibition (HIPK3 (human); compound 0.2 µM) was 0.5%. The inhibition (FGFR2 (human); compound 0.02 µM) was 71.8%, the inhibition (FGFR2 (human); compound 0.2 µM) was 98.3% and the inhibition (PIK3CA PIK3R1 (human); compound 0.02 µM) was 26.6%. The inhibition (PIK3CA PIK3R1 (human); compound 0.2 µM) was 34.9%, the inhibition (JAK2 JH1 JH2 (human); compound 0.02 µM) was 4.5% and the inhibition (JAK2 JH1 JH2 (human); compound 0.2 µM) was 4.5%. It also gave an inhibition (PRKCH (human); compound 0.02 µM) of 6%, an inhibition (PRKCH (human); compound 0.2 µM) of 4.7% and an inhibition (CSNK1G2 (human); compound 0.02 µM) of -0.7%. For the same compound, the inhibition (CSNK1G2 (human); compound 0.2 µM) was -2.1%, the inhibition (MAPK10 (human); compound 0.02 µM) was -2.9% and the inhibition (MAPK10 (human); compound 0.2 µM) was -6.5%. The inhibition (EPHA6 (human); compound 0.02 µM) was 37.1%, the inhibition (EPHA6 (human); compound 0.2 µM) was 95.9% and the inhibition (ALK NPM1 (human); compound 0.02 µM) was 3.6%. The inhibition (ALK NPM1 (human); compound 0.2 µM) was 5.1%, the inhibition (CDC42BPA (human); compound 0.02 µM) was 3.4% and the inhibition (CDC42BPA (human); compound 0.2 µM) was 14.9%. For the same compound, the inhibition (MAP4K4 (human); compound 0.02 µM) was -0.2%, the inhibition (MAP4K4 (human); compound 0.2 µM) was 15.5% and the inhibition (PIM1 (human); compound 0.02 µM) was -2.8%. It also gave an inhibition (PIM1 (human); compound 0.2 µM) of -8.3%, an inhibition (ROCK1 (human); compound 0.02 µM) of -1.3% and an inhibition (ROCK1 (human); compound 0.2 µM) of -1.3%. The inhibition (CAMK4 (human); compound 0.02 µM) was -4%, the inhibition (CAMK4 (human); compound 0.2 µM) was -0.6% and the inhibition (KIT (human); compound 0.02 µM) was 64.1%. For the same compound, the inhibition (KIT (human); compound 0.2 µM) was 71.4%, the inhibition (LATS2 (human); compound 0.02 µM) was -7.6% and the inhibition (LATS2 (human); compound 0.2 µM) was -0.9%. It also gave an inhibition (IRAK1 (human); compound 0.02 µM) of -19.1% and an inhibition (IRAK1 (human); compound 0.2 µM) of -7.5%.
